Source: patent publication US20060292243A1, “Arsenic compounds for the treatment of the arsenic-sensitive blast-cell related diseases” (priority 2005, published 2006)
“Also recorded” adds a separate entry of the source. Marks after values point to notes of the source that are not given here.

Tests used:
[1] = tested on: PBMCs (peripheral blood mononuclear cells); assay: PI staining, cell death within all PBMCs by flowcytometry; format: cell-based
Source text: Arsenic trioxide (Asadin®) induces differentiation and apoptosis of malignant cells in vitro and in vivo and has been used in the treatment of a variety of hematological malignancies, the main goal of this example is to try to identify the apoptotic effect of arsenic trioxide on various PBMCs (peripheral blood mononuclear cells), and the methodologies used in this invention include:
1. The isolation procedure using Ficoll Plaque for exploiting the different densities of RBCs and PBMCs to separate them.
2. The detection of apoptosis by PI staining through flowcytometry.
In the PI-based study, under different concentrations of arsenic trioxide (0, 0.5, 2.5, 5, or 10 μM), the percentages of cell death (within all PBMCs) in 24 hr and 48 hr were calculated respectively in Table 1.1.

Eotaxin = Eotaxin in BALF by ELISA, OVA-immunized mice; format: in vivo, BALB/c mice
Description: (§1) BALB/c mice (female, 6-8 weeks) were immunized with ovalbumin (OVA) at day 0, 14, 21 and 28. 38 days later, animals were injected with arsenic trioxide (ATO) i.p. for 7 days and antigen challenges with OVA were performed at day 42, 43, 44. At day 45, the airway enhanced pause (PenH) values were measured. 48 hours after the last antigen challenges, the mice were sacrificed, the trachea cannulated, and bronchoalveolar lavage (BAL) was performed by four repeated lavages with balanced salt solution (HBSS) injected into the lungs via the trachea. Total cell counts were performed with a hemocytometer after staining with trypan blue, and then cytospins were prepared, and a differential count of 300 cells per slide was performed. To obtain the absolute number of each leukocyte subtype in the lavage, the percentage of each cell type was multiplied by the total number of cells that were recovered from the bronchoalveolar lavage fluid (BALF). Eotaxin in the BALF was measured via ELISA. Four groups of mice were treated as Table 3.1.
(§2) Group A mice were challenged by PBS only and then treated by PBS, too. Group B mice were immunized by ovalbumin and then treated by PBS only. Group C mice were immunized by ovalbumin and then treated by arsenic trioxide in a dosage of 2.5 mg per kg for mice. Group D mice were challenged by ovalbumin as group B and C and then treated by arsenic trioxide in a dosage of 5 mg/kg.

BALB/c mice = assay: Airway responsiveness to methacholine (PenH, pulmonary function test), OVA-immunized mice; format: in vivo
Description: as §1, §2
The mice were challenged with methacholine (Mch.) in an increasing concentration and the airway constriction of the mice was measured by using pulmonary function test, whereafter the data of Table 3.5 was obtained. […] The result is also consistent with the results of eotaxin and eosinophil in BALF.

dsDNA = assay: Serum IgG anti-dsDNA ELISA in SLE model mice; format: in vivo, NZB/NZW mice
Description: In vivo studies on the activity of arsenic compound were carried out by using an experimental animal model of human Systemic Lupus Erythematosus. NZB/NZW denotes the mouse strain that spontaneously develops an autoimmune syndrome having notable similarities to human Systemic Lupus Erythematosus. Autoimmune disease in NZB/NZW mice is characterized by antinuclear antibodies (IgG) production about 4 months of age, and glomerulonephritis with proteinuria is developed when at 9 months of age, and that is the major cause of death (uremia).
At 24 weeks of age, mice (3 groups) were treated 3 times per week with PBS (Group I as positive control), 2.5 mg/kg of As2O3 (Group II), or 5 mg/kg of As2O3 (Group III) administered intraperitoneally. The treatment was stopped at 28 weeks of age. Mice were observed daily for clinical signs of disease and for mortality and were bled every 4 weeks for determination of anti-DNA antibody production.
Standard ELISA assay to measure the serum levels of anti-DNA antibodies was performed as follows. The plates were coated 10 μg/mL mBSA 4° C. overnight before coating dsDNA and ssDNA diluted with PBS to concentration of 7.5 μg/mL. ssDNA was prepared by boiling for 20 min then placed on ice immediately for 20 min. After overnight incubation at 4° C., the plates were washed and blocked with gelatin-PBS solution. The serum was diluted and then added to the appropriate wells, which were then incubated at 37° C. for 45 min. Horseradish peroxidase-comjugated anti-mouse γ-chain-specific antibodies were added. After incubation at 37° C. for 50 min, then room temperature for 10 min, 2,2′-azino-bisC3-ethylbenzthiazoline-6-sulphonic acid (ABTS) solution was used as substrate and the absorbance was measured at 405 nm. The level of anti-DNA IgG is presented as ELISA units (EU/ml) compared with mAb 10F10. The OD value generated by 74 ng/ml of 10F10 Ab was defined as 1 EU/ml for anti-DNA IgG. The level of anti-nucleosome IgG was calculated as EU by comparison with 10F10 Ab. The absorbance value generated by 231 ng/ml of 10F10 Ab was defined as 1 EU/ml of anti-nucleosome IgG.

Trypanosoma brucei = assay: Anti-Trypanosoma test, viable cell count; format: cell-based
Description: Arsenic trioxide (Asadin®, 10 mg/10 ml/vial) was used to check the toxicity on the Trypanosoma brucei. Viable cell count was microscopically monitored. […] This is one third of recommended dosage of Melarsoprol (an Anti-Trypanosoma drug). Moreover, cytology observation noticed specific death morphology on cell toxicity. […] Further cytology examination on the death cells will be examined.

arsenic trioxide
24 hr % cell death ([1]; 0.5 μM): 7.3 ± 1.2% | 48 hr % cell death ([1]; 0.5 μM): 7.6 ± 0.6% | 24 hr % cell death ([1]; 2.5 μM): 13.7 ± 1.6% | 48 hr % cell death ([1]; 2.5 μM): 15.2 ± 2.3% | 24 hr % cell death ([1]; 5.0 μM): 14.6 ± 2.1% | 48 hr % cell death ([1]; 5.0 μM): 17.2 ± 1.9% | 24 hr % cell death ([1]; 10 μM): 17.8 ± 1.8% | 48 hr % cell death ([1]; 10 μM): 20.3 ± 2.6% | eotaxin in BALF, Mean (Eotaxin; Group C: OVA, ATO 2.5 mg/kg i.p. for 7 days): 12.38* pg/ml | eotaxin in BALF, Mean (Eotaxin; Group D: OVA, ATO 5 mg/kg i.p. for 7 days): 16.00 pg/mL | effect on eotaxin level after antigen challenge (Eotaxin; especially 2.5 mg/kg, group C vs group B p<0.05): diminish the eotaxin level | effect on airway hyper-reactivity / responsiveness to methacholine (BALB/c mice; BALB/c mice, especially 2.5 mg/kg): does decrease the airway responsiveness; also recorded: successfully blocked | airway constriction by pulmonary function test (PenH) (BALB/c mice; Group C: ATO 2.5 mg/kg, Mch 6.25 mg/ml, mean ± SD): 3.62 ± 0.47 | airway constriction by pulmonary function test (PenH) (BALB/c mice; Group C: ATO 2.5 mg/kg, Mch 12.5 mg/ml, mean ± SD): 7.83 ± 1.13 | airway constriction by pulmonary function test (PenH) (BALB/c mice; Group C: ATO 2.5 mg/kg, Mch 25 mg/ml, mean ± SD, p<0.05 vs Group B): 10.15 ± 0.84 | airway constriction by pulmonary function test (PenH) (BALB/c mice; Group C: ATO 2.5 mg/kg, Mch 50 mg/ml, mean, p<0.05 vs Group B): 9.83 | airway constriction by pulmonary function test (PenH) (BALB/c mice; Group D: ATO 5 mg/kg, Mch 6.25 mg/ml, mean ± SD): 2.55 ± 0.35 | airway constriction by pulmonary function test (PenH) (BALB/c mice; Group D: ATO 5 mg/kg, Mch 12.5 mg/ml, mean ± SD): 8.82 ± 0.88 | airway constriction by pulmonary function test (PenH) (BALB/c mice; Group D: ATO 5 mg/kg, Mch 25 mg/ml, mean ± SD): 11.57 ± 1.52 | airway constriction by pulmonary function test (PenH) (BALB/c mice; Group D: ATO 5 mg/kg, Mch 50 mg/ml, mean): 12.51 | IgG Anti-dsDNA titer (dsDNA; 2.5 mg/kg i.p. 3 times per week, before treatment): 0.262 ELISA Unit | IgG Anti-dsDNA titer (dsDNA; 2.5 mg/kg, 4 weeks after treatment): 0.572 ELISA Unit | IgG Anti-dsDNA titer (dsDNA; 2.5 mg/kg, 8 weeks after treatment): 0.464 ELISA Unit | IgG Anti-dsDNA titer (dsDNA; 2.5 mg/kg, 12 weeks after treatment): 0.442 ELISA Unit | IgG Anti-dsDNA titer (dsDNA; 5 mg/kg i.p. 3 times per week, before treatment): 0.362 ELISA Unit | IgG Anti-dsDNA titer (dsDNA; 5 mg/kg, 4 weeks after treatment): 0.285 ELISA Unit | IgG Anti-dsDNA titer (dsDNA; 5 mg/kg, 8 weeks after treatment): 0.357 ELISA Unit | IgG Anti-dsDNA titer (dsDNA; 5 mg/kg, 12 weeks after treatment): 0.702 ELISA Unit | anti-DNA antibody levels in sera compared to PBS (Tables 4.1 and 4.2, ssDNA and dsDNA) (dsDNA; NZB/NZW mice, 2.5 or 5 mg/kg): significantly lower anti-DNA antibody levels | killing effect on Trypanosoma brucei (viable cell count) (Trypanosoma brucei; 0.1 mg/ml/day for 3 days, over 7 days): complete killing effect | death morphology on cytology observation (Trypanosoma brucei; cultured Trypanosoma brucei): Cells became thread-like | killing dosage compared with Melarsoprol (Trypanosoma brucei; cultured Trypanosoma brucei): comparable, if not better | killing potency versus 3 doses regimen (Trypanosoma brucei; one dose regimen of 0.3 mg/ml): less killing potency at least one log difference
